Experimental data: patent US11433055B2, “Chromane monobactam compounds for the treatment of bacterial infections” (priority 2017, dated 2022)
Where a name gives a salt, the structure may show the parent alone.

What was measured:
Type in all cases: cell-based
Conditions in all cases: lowest concentration inhibiting 95% of bacterial growth; in the presence of β lactamase inhibitor (BLi, Relebactam); 22 hours, 35±2° C., OD600
[1] = system: Acinetobacter baumannii expressing TEM-1, AmpC, and Oxa-24/40 (CL6188)
Protocol: (§1) Antibiotic Activity: Determination of Growth Inhibitory Concentration
(§2) The concentrations of compounds required to inhibit the growth of various strains of bacteria were determined in an assay that assessed bacterial growth by measuring optical density at 600 nm (OD600). The bacterial strains tested included the clinical strains Escherichia coli expressing NDM-1 (CLB30016), Klebsiella pneumoniae expressing KPC-1 (CL6569), Acinetobacter baumannii expressing TEM-1, AmpC, and Oxa-24/40 (CL6188) and Pseudomonas aeruginosa expressing AmpC (CL5701). All compounds were tested in the presence of a β lactamase inhibitor (BLi, Relebactam) in 384-well microplates. The clinical strains were stored as frozen single use stocks, thawed and diluted into 1.1× cation-adjusted Mueller-Hinton II broth to achieve approximately 2×10^5 CFU/mL. Test compounds were dissolved in DMSO and diluted 1:50 in the assay, resulting in a final concentration range of 100 μM to 0.098 μM. On the day of the assay, 1 μL of test compound was added to the plate followed by 4 μL of 50 μg/mL BLi in MOPS buffer and 45 μL of diluted bacteria. Plates were centrifuged at 1000 rpm for 30 seconds, shaken at approximately 800 rpm for 1 minute, and incubated at 35±2° C. for 22 hours. The concentration of BLi used in the assay was […]. At the end of the incubation, absorbance at 600 nm was determined using a spectrophotometer. Inhibition was quantitated by identifying the lowest concentration of test compound that was required to inhibit 95% of the growth of the bacteria. The results for Examples 1-39 are reported in Table I, expressed as the concentration of compound that inhibited 95% of bacterial growth (Minimum Inhibitory Threshold Concentration; MITC95).

[2] = system: Pseudomonas aeruginosa expressing AmpC (CL5701)
Protocol: as §1, §2

[3] = system: Klebsiella pneumoniae expressing KPC-1 (CL6569)
Protocol: as §1, §2

[4] = system: Escherichia coli expressing NDM-1 (CLB30016)
Protocol: as §1, §2

In the case of `C[n+]1cc(-c2ccc3c(c2)CC[C@H]([C@](C)(O/N=C(\C(=O)N[C@@H]2C(=O)N(OS(=O)(=O)[O-])C2(C)C)c2csc(N)n2)C(=O)O)O3)cn1C[C@@H](O)CN` [Example 8, (S)-3-((Z)-2-(((S)-1-((R)-6-(1-((S)-3-amino-2-hydroxypropyl)-2-methyl-1H-pyrazol-2-ium-4-yl)chroman-2-yl)-1-carboxyethoxy)imino)-2-(2-aminothiazol-4-yl)acetamido)-2,2-dimethyl-4-oxoazetidin-1-yl sulfate], the “AB_CL6188 MITC95” value [1] was 100 µM, the “PA_CL5701 MITC95” value [2] was 25 µM and the “KP_CL6569 MITC95” value [3] was 3.125 µM. For the same compound, the “EC_CLB30016 MITC95” value [4] was 100 µM.

With `C[n+]1cc(-c2ccc3c(c2)CC[C@H]([C@](C)(O/N=C(\C(=O)N[C@@H]2C(=O)N(OS(=O)(=O)[O-])C2(C)C)c2csc(N)n2)C(=O)O)O3)cnc1NC[C@@H](O)CN.O=CO` [Example 18, (S)-3-((Z)-2-(2-aminothiazol-4-yl)-2-(((S)-1-((R)-6-(2-(((S)-3-ammonio-2-hydroxy-propyl)amino)-1-methylpyrimidin-1-ium-5-yl)chroman-2-yl)-1-carboxy-ethoxy)imino)acetamido)-2,2-dimethyl-4-oxoazetidin-1-yl sulfate formate] the “AB_CL6188 MITC95” value [1] was 3.125 µM, the “PA_CL5701 MITC95” value [2] was 6.25 µM and the “KP_CL6569 MITC95” value [3] was 0.3906 µM. The “EC_CLB30016 MITC95” value [4] was 6.25 µM.

`CC1(C)[C@H](NC(=O)/C(=N\O[C@](C)(C(=O)O)[C@H]2CCc3cc(-c4cn(C[C@@H](O)CN)[n+](C[C@H]5CCNC5)c4)ccc3O2)c2csc(N)n2)C(=O)N1OS(=O)(=O)[O-]` [Example 41, mono((S)-3-((Z)-2-(((S)-1-((R)-6-(1-((S)-3-amino-2-hydroxypropyl)-2-(((S)-pyrrolidin-1-ium-3-yl)methyl)-1H-pyrazol-2-ium-4-yl)chroman-2-yl)-1-carboxyethoxy)imino)-2-(2-aminothiazol-4-yl)acetamido)-2,2-dimethyl-4-oxoazetidin-1-yl sulfate) mono (2,2,2-trifluoroacetate)] was tested, and the “AB_CL6188 MITC95” value [1] was 1.56 µM, the “PA_CL5701 MITC95” value [2] was 0.78 µM and the “KP_CL6569 MITC95” value [3] was 0.1 µM. For the same compound, the “EC_CLB30016 MITC95” value [4] was >50 µM.

With `CC1(C)[C@H](NC(=O)/C(=N\O[C@](C)(C(=O)O)[C@H]2CCc3cc(C4=CN=C(NCCCN)NC4)ccc3O2)c2csc(N)n2)C(=O)N1OS(=O)(=O)O` [Example 32, 2-((3-aminopropyl)amino)-5-((R)-2-((S)-1-((((Z)-1-(2-aminothiazol-4-yl)-2-(((S)-2,2-dimethyl-4-oxo-1-(sulfooxy)azetidin-3-yl)amino)-2-oxoethylidene)amino)oxy)-1-carboxyethyl)chroman-6-yl)-3,4-dihydropyrimidin-1-ium Formate] the “AB_CL6188 MITC95” value [1] was 3.125 µM, the “PA_CL5701 MITC95” value [2] was 3.125 µM and the “KP_CL6569 MITC95” value [3] was 0.1953 µM. For the same compound, the “EC_CLB30016 MITC95” value [4] was 3.125 µM.

With `CC1(C)[C@H](NC(=O)/C(=N\O[C@](C)(C(=O)O)[C@H]2CCc3cc(-c4cnc(NC[C@H](O)CN)[n+](CC5CNC5)c4)ccc3O2)c2csc(N)n2)C(=O)N1OS(=O)(=O)[O-].O=CO` [Example 19, (S)-3-((Z)-2-(((S)-1-((R)-6-(2-(((R)-3-amino-2-hydroxy-propyl)amino)-1-(azetidin-1-ium-3-ylmethyl)pyrimidin-1-ium-5-yl)chroman-2-yl)-1-carboxyethoxy)imino)-2-(2-aminothiazol-4-yl)acetamido)-2,2-dimethyl-4-oxoazetidin-1-yl sulfate formate] the “AB_CL6188 MITC95” value [1] was 12.5 µM, the “PA_CL5701 MITC95” value [2] was 12.5 µM and the “KP_CL6569 MITC95” value [3] was 0.7813 µM. For the same compound, the “EC_CLB30016 MITC95” value [4] was 6.25 µM.
